The values that follow come from PMC11323243, “Novel Inhibitors of SARS-CoV-2 RNA Identified through Virtual Screening” (Journal of Chemical Information and Modeling, 2024).

The experiment relates to Omicron (BA.1) SARS-CoV-2. As to the kind of experiment: Antiviral activity, plaque reduction assay on Vero E6 cells. Particulars: for EC50: Severe acute respiratory syndrome coronavirus 2, Vero C1008, 72 h, read-out: EC50, effective concentration inhibiting 50% of the virus. The class given is cell-based.

Molecules are shown by their SMILES. “Also recorded” adds a separate entry of the source. Bounds are passed on as bounds.

Turning to `OCC1CN(Cc2cc3c(cc2Cl)OCO3)CC1CN1CCOCC1` (centres unmarked) [Compound 178], the “antiviral activity against SARS-CoV-2 (in words)” value (“antiviral activity” below) is listed as “decrease in potency” and the EC50 was determined as 103 µM.
With `NCCc1ccc(CN2CCC(O)(c3cccc(C(F)(F)F)c3)CC2)cc1` [Compound 188], the EC50 came out at 17.2 µM.
Consider `Cc1cc2c(cc1CN1CC(CO)C(CN3CCCCCC3)C1)OCCO2` (centres unmarked) [Compound 194], for which the EC50 amounted to 28.9 µM.
For the molecule `OC1CN(Cc2cccc3cc[nH]c23)CCN(c2ccncc2)C1` (centres unmarked) [Compound 229], the EC50 turned out to be 26.8 µM.
With `OCC1CN(Cc2cc3c(cc2Cl)OCO3)CC1CN1CCCCCC1` (centres unmarked) [Compound 269], the “antiviral activity” value is given as “retained activity against the wild-type virus albeit with reduced potency” and the EC50 turned out to be 53.9 µM.
Take `Cc1cc2c(cc1CN1CC(CO)C(CN3CCOCC3)C1)OCCO2` (centres unmarked) [Compound 325]: the “antiviral activity” value is “did not inhibit wild-type virus; also recorded: loss of antiviral activity against SARS-CoV-2”.
Take `CN(C)CCN(C)CC1CN(Cc2ccc3c(c2)OCCO3)CC1CO` (centres unmarked) [Compound 570]: the EC50 was 38.5 µM.
Still for that read-out and setting: to `Cc1cc2c(cc1CN1CC(CO)C(CN3CCN(C)CC3)C1)OCCO2` (centres unmarked) [Compound 782] belongs 4.07 µM.
Still for that read-out and setting: under `Cc1cc2c(cc1CN1CC(CO)C(CN3CCCC3)C1)OCO2` (centres unmarked) [Compound 789] stands 44 µM.
Still for that read-out and setting: to `OC1CCCN(C2CCN(Cc3ncc[nH]3)CC2)C1` (centres unmarked) [Compound 21256088] belongs more than 100 µM.
As for `Cc1nc(CN)cc(N2CCC(C(O)c3nccn3C)CC2)n1` (centres unmarked) [Compound 32807865], the EC50 is more than 100 µM.
The same measure, in the same setting: under `Clc1ccc2c(N3CCN(CCCN4CCN(c5ccnc6cc(Cl)ccc56)CC4)CC3)ccnc2c1` [piperaquine, reference compound] stands 11.6 µM.
